Results: the NIST ThermoML archive (doi:10.1016/j.tca.2013.08.002)
Numbers after ± are expanded uncertainties.

Legend:
[1] = mn = molality of the nth substance listed, in mol/kg; conditions: 101 kPa, Liquid; for speed of sound: Frequency=1.999 MHz, Sing-around technique in a fixed-path interferometer; for mass density: Vibrating tube method
[2] = 101 kPa, Liquid, Frequency=1.999 MHz, Sing-around technique in a fixed-path interferometer

[Cl-].[Cl-].[Mg+2] [magnesium chloride] + O showed a speed of sound ([1]; 288.15 K, m1 = 0.3) of 1510.3 ± 10 m/s, a mass density ([1]; 288.15 K, m1 = 0.3) of 1024.7 ± 2 kg/m3 and a speed of sound ([1]; 293.15 K, m1 = 0.3) of 1518.6 ± 10 m/s. It also gave a mass density ([1]; 293.15 K, m1 = 0.3) of 1022.7 ± 2 kg/m3, a speed of sound ([1]; 298.15 K, m1 = 0.3) of 1529.1 ± 10 m/s and a speed of sound ([1]; 303.15 K, m1 = 0.3) of 1540 ± 10 m/s. For the same molecule, the mass density ([1]; 303.15 K, m1 = 0.3) was 1019.2 ± 2 kg/m3, the speed of sound ([1]; 308.15 K, m1 = 0.3) was 1551.9 ± 10 m/s and the speed of sound ([1]; 313.15 K, m1 = 0.3) was 1563 ± 10 m/s. For the same molecule, the mass density ([1]; 313.15 K, m1 = 0.3) was 1014.9 ± 2 kg/m3, the speed of sound ([1]; 318.15 K, m1 = 0.3) was 1573.4 ± 10 m/s and the mass density ([1]; 318.15 K, m1 = 0.3) was 1012.6 ± 2 kg/m3.
With [Cl-].[K+] [potassium chloride] + O the speed of sound ([1]; 288.15 K, m1 = 0.3) was 1482.9 ± 10 m/s, the mass density ([1]; 288.15 K, m1 = 0.3) was 1019.9 ± 2 kg/m3 and the speed of sound ([1]; 293.15 K, m1 = 0.3) was 1500.8 ± 10 m/s. For the same molecule, the mass density ([1]; 293.15 K, m1 = 0.3) was 1018.1 ± 2 kg/m3, the speed of sound ([1]; 298.15 K, m1 = 0.3) was 1518.4 ± 10 m/s and the mass density ([1]; 298.15 K, m1 = 0.3) was 1016.9 ± 2 kg/m3. The speed of sound ([1]; 303.15 K, m1 = 0.3) was 1537.8 ± 10 m/s, the mass density ([1]; 303.15 K, m1 = 0.3) was 1013.5 ± 2 kg/m3 and the speed of sound ([1]; 308.15 K, m1 = 0.3) was 1548.6 ± 10 m/s. It also gave a mass density ([1]; 308.15 K, m1 = 0.3) of 1008.5 ± 2 kg/m3, a speed of sound ([1]; 313.15 K, m1 = 0.3) of 1558.8 ± 10 m/s and a mass density ([1]; 313.15 K, m1 = 0.3) of 1006.1 ± 2 kg/m3. The speed of sound ([1]; 318.15 K, m1 = 0.3) was 1568 ± 10 m/s and the mass density ([1]; 318.15 K, m1 = 0.3) was 1003.4 ± 2 kg/m3.
Work on O [water] yielded a speed of sound ([2]; 298.15 K) of 1496.5 ± 10 m/s, a speed of sound ([2]; 308.15 K) of 1519.4 ± 10 m/s and a speed of sound ([2]; 313.15 K) of 1528.9 ± 10 m/s.
With O [water] + C[N+](C)(C)CC(=O)[O-] the speed of sound ([1]; 298.15 K, m2 = 0) was 1496.5 ± 10 m/s, the speed of sound ([1]; 308.15 K, m2 = 0) was 1519.4 ± 10 m/s and the speed of sound ([1]; 313.15 K, m2 = 0) was 1528.9 ± 10 m/s.
